Source: patent US20130143929A1, “FUNGICIDAL IMIDAZOLES” (EI DU PONT DE NEMOURS AND COMPANY, priority 2010, published 2013)
Marks after values point to notes of the source that are not given here.

What was measured:
Assay type in all cases: in vivo
[1] = system: Puccinia recondite f. sp. tritici (the causal agent of wheat leaf rust); assay: Test A: wheat leaf rust, preventive spray on wheat seedlings, visual disease rating; conditions: wheat leaf rust, preventive spray on wheat seedlings
How it was run: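 Wheat seedlings were sprayed to run-off with compound suspended in acetone/water containing 250 ppm Trem 014 (200 ppm ≈ 800 g/ha; some at 40 ppm). Puccinia recondite spores were inoculated the next day. Plants were held 24 h saturated at 20° C, then 7 days at 20° C, and disease control was rated visually on a 0–100 scale against controls.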

[2] = system: Septoria tritici (the causal agent of wheat leaf blotch); assay: Test B: wheat leaf blotch, preventive spray on wheat seedlings, visual disease rating; conditions: wheat leaf blotch, preventive spray on wheat seedlings
How it was run: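 Wheat seedlings sprayed to run-off with compound suspension (acetone/water with 250 ppm Trem 014; 200 ppm ≈ 800 g/ha, some at 40 ppm), inoculated next day with Septoria tritici spores. 48 h saturated humidity at 24 °C, then 19 days at 20 °C; visual rating, 100 = full control.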

[3] = system: Botrytis cinerea (the causal agent of tomato Botrytis); assay: Test C: tomato Botrytis, preventive spray on tomato seedlings, visual disease rating; conditions: tomato Botrytis, preventive spray on tomato seedlings
How it was run: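 Test suspension (acetone/water with 250 ppm Trem 014; 200 ppm equivalent to 800 g/ha) sprayed to run-off on tomato seedlings; B. cinerea spores inoculated next day. After 48 h saturated humidity at 20° C then 3 days at 24° C, disease rated visually as % control relative to untreated controls (0–100).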

[4] = system: Blumeria graminis f. sp. tritici (also known as Erysiphe graminis f. sp. tritici, the causal agent of wheat powdery mildew); assay: Test D: wheat powdery mildew, preventive spray on wheat seedlings, visual disease rating; conditions: wheat powdery mildew, preventive spray on wheat seedlings
How it was run: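 Compound suspended in acetone/water (50/50) with 250 ppm Trem 014 and sprayed to run-off on wheat seedlings (200 ppm ≈ 800 g/ha), then inoculated next day with spore dust. Disease rated visually after 8 days at 20 °C as % control relative to untreated plants (0-100).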

[5] = asterisk: 40 ppm test suspension
[6] = no asterisk (standard test suspension concentration, not 40 ppm)

COc1ccc(C(O)c2c(Br)ncn2-c2c(F)cccc2Cl)c(C)c1 (racemic) [compound 222]
Test A rating (100 = 100% disease control, 0 = no disease control relative to the controls) [1, 5]: 91* %
Test B rating (100 = 100% disease control, 0 = no disease control relative to the controls) [2, 5]: 57* %
Test C rating (100 = 100% disease control, 0 = no disease control relative to the controls) [3, 5]: 30* %
Test D rating (100 = 100% disease control, 0 = no disease control relative to the controls) [4, 5]: 0* %

COc1ccc(C(O)c2c(Br)nc(Br)n2-c2ccc(F)cc2Cl)c(Cl)c1 (centres unmarked) [compound 355]
Test A rating (100 = 100% disease control, 0 = no disease control relative to the controls) [1, 5]: 100* %
Test B rating (100 = 100% disease control, 0 = no disease control relative to the controls) [2, 5]: 100* %
Test C rating (100 = 100% disease control, 0 = no disease control relative to the controls) [3, 5]: 100* %
Test D rating (100 = 100% disease control, 0 = no disease control relative to the controls) [4, 5]: 97* %

COc1ccc(C(O)c2c(Cl)nc(C)n2-c2c(F)cccc2Cl)c(F)c1 (racemic) [compound 277]
Test A rating (100 = 100% disease control, 0 = no disease control relative to the controls) [1, 5]: 100* %
Test B rating (100 = 100% disease control, 0 = no disease control relative to the controls) [2, 5]: 100* %
Test C rating (100 = 100% disease control, 0 = no disease control relative to the controls) [3, 5]: 100* %
Test D rating (100 = 100% disease control, 0 = no disease control relative to the controls) [4, 5]: 97* %

Cc1nc(Cl)c(C(O)c2ccc(F)cc2Br)n1-c1ccc(F)cc1F (centres unmarked) [compound 313]
Test A rating (100 = 100% disease control, 0 = no disease control relative to the controls) [1, 5]: 100* %
Test B rating (100 = 100% disease control, 0 = no disease control relative to the controls) [2, 5]: 100* %
Test C rating (100 = 100% disease control, 0 = no disease control relative to the controls) [3, 5]: 17* %
Test D rating (100 = 100% disease control, 0 = no disease control relative to the controls) [4, 5]: 0* %

Cc1cc(F)ccc1C(O)c1c(Cl)nc(C)n1-c1c(F)cccc1F (centres unmarked) [compound 91]
Test A rating (100 = 100% disease control, 0 = no disease control relative to the controls) [1, 6]: 100%
Test B rating (100 = 100% disease control, 0 = no disease control relative to the controls) [2, 6]: 100%
Test C rating (100 = 100% disease control, 0 = no disease control relative to the controls) [3, 6]: 98%
Test D rating (100 = 100% disease control, 0 = no disease control relative to the controls) [4, 6]: 94%

OC(c1ccc(F)cc1F)c1c(Cl)nc(Cl)n1-c1ccc(F)cc1Cl (single isomer, unassigned) [compound 19]
Test A rating (100 = 100% disease control, 0 = no disease control relative to the controls) [1, 6]: 100%
Test B rating (100 = 100% disease control, 0 = no disease control relative to the controls) [2, 6]: 100%
Test C rating (100 = 100% disease control, 0 = no disease control relative to the controls) [3, 6]: 100%
Test D rating (100 = 100% disease control, 0 = no disease control relative to the controls) [4, 6]: 98%

OC(c1c(F)ccc(Br)c1Cl)c1c(Cl)nc(Cl)n1-c1ccc(F)cc1Cl (racemic) [compound 18]
Test A rating (100 = 100% disease control, 0 = no disease control relative to the controls) [1, 6]: 100%
Test B rating (100 = 100% disease control, 0 = no disease control relative to the controls) [2, 6]: 100%
Test C rating (100 = 100% disease control, 0 = no disease control relative to the controls) [3, 6]: 100%
Test D rating (100 = 100% disease control, 0 = no disease control relative to the controls) [4, 6]: 91%

Cc1nc(Cl)n(-c2c(F)cccc2Cl)c1C(O)c1ccc(F)cc1Cl (centres unmarked) [compound 206]
Test A rating (100 = 100% disease control, 0 = no disease control relative to the controls) [1, 5]: 100* %
Test B rating (100 = 100% disease control, 0 = no disease control relative to the controls) [2, 5]: 100* %
Test C rating (100 = 100% disease control, 0 = no disease control relative to the controls) [3, 5]: 100* %
Test D rating (100 = 100% disease control, 0 = no disease control relative to the controls) [4, 5]: 93* %

COc1cc(F)c(C(O)c2c(Cl)nc(C)n2-c2c(F)cccc2F)c(F)c1 (centres unmarked) [compound 192]
Test A rating (100 = 100% disease control, 0 = no disease control relative to the controls) [1, 5]: 100* %
Test B rating (100 = 100% disease control, 0 = no disease control relative to the controls) [2, 5]: 100* %
Test C rating (100 = 100% disease control, 0 = no disease control relative to the controls) [3, 5]: 100* %
Test D rating (100 = 100% disease control, 0 = no disease control relative to the controls) [4, 5]: 53* %

Cc1cc(F)ccc1C(O)c1cnc(C)n1-c1c(F)cc(Cl)cc1F (centres unmarked) [compound 109]
Test A rating (100 = 100% disease control, 0 = no disease control relative to the controls) [1, 5]: 99* %
Test B rating (100 = 100% disease control, 0 = no disease control relative to the controls) [2, 5]: 94* %
Test C rating (100 = 100% disease control, 0 = no disease control relative to the controls) [3, 5]: 0* %
Test D rating (100 = 100% disease control, 0 = no disease control relative to the controls) [4, 5]: 0* %

Cc1nc(Cl)n(-c2ccc(F)cc2Cl)c1C(O)c1ccc(F)cc1F (single isomer, unassigned) [compound 27]
Test A rating (100 = 100% disease control, 0 = no disease control relative to the controls) [1, 6]: 100%
Test B rating (100 = 100% disease control, 0 = no disease control relative to the controls) [2, 6]: 100%
Test C rating (100 = 100% disease control, 0 = no disease control relative to the controls) [3, 6]: 100%
Test D rating (100 = 100% disease control, 0 = no disease control relative to the controls) [4, 6]: 99%

COc1ccc(C(O)c2cnc(C)n2-c2ccc(F)cc2F)c(F)c1 (racemic) [compound 283]
Test A rating (100 = 100% disease control, 0 = no disease control relative to the controls) [1, 5]: 41* %
Test B rating (100 = 100% disease control, 0 = no disease control relative to the controls) [2, 5]: 0* %
Test C rating (100 = 100% disease control, 0 = no disease control relative to the controls) [3, 5]: 0* %
Test D rating (100 = 100% disease control, 0 = no disease control relative to the controls) [4, 5]: 0* %

OC(c1ccc(F)cc1F)c1c(Cl)nc(Cl)n1-c1ccc(Cl)cc1Cl (single isomer, unassigned) [compound 21]
Test A rating (100 = 100% disease control, 0 = no disease control relative to the controls) [1, 6]: 100%
Test B rating (100 = 100% disease control, 0 = no disease control relative to the controls) [2, 6]: 100%
Test C rating (100 = 100% disease control, 0 = no disease control relative to the controls) [3, 6]: 100%
Test D rating (100 = 100% disease control, 0 = no disease control relative to the controls) [4, 6]: 69%

Cc1ncc(C(O)c2c(F)cc(F)cc2F)n1-c1ccc(F)cc1F (centres unmarked) [compound 175]
Test A rating (100 = 100% disease control, 0 = no disease control relative to the controls) [1, 6]: 97%
Test B rating (100 = 100% disease control, 0 = no disease control relative to the controls) [2, 6]: 3%
Test C rating (100 = 100% disease control, 0 = no disease control relative to the controls) [3, 6]: 9%
Test D rating (100 = 100% disease control, 0 = no disease control relative to the controls) [4, 6]: 0%

COc1ccc(C(O)c2c(Br)nc(C)n2-c2ccc(F)cc2Cl)c(F)c1 (centres unmarked) [compound 302]
Test A rating (100 = 100% disease control, 0 = no disease control relative to the controls) [1, 5]: 100* %
Test B rating (100 = 100% disease control, 0 = no disease control relative to the controls) [2, 5]: 100* %
Test C rating (100 = 100% disease control, 0 = no disease control relative to the controls) [3, 5]: 100* %
Test D rating (100 = 100% disease control, 0 = no disease control relative to the controls) [4, 5]: 64* %

Cc1ccc(C(O)c2c(Br)nc(C)n2-c2c(F)cccc2F)c(F)c1 (centres unmarked) [compound 52]
Test A rating (100 = 100% disease control, 0 = no disease control relative to the controls) [1, 5]: 99* %
Test B rating (100 = 100% disease control, 0 = no disease control relative to the controls) [2, 5]: 100* %
Test C rating (100 = 100% disease control, 0 = no disease control relative to the controls) [3, 5]: 37* %
Test D rating (100 = 100% disease control, 0 = no disease control relative to the controls) [4, 5]: 35-* %

Cc1cc(F)ccc1C(O)c1c(C)nc(Cl)n1-c1c(F)cccc1Br (centres unmarked) [compound 209]
Test A rating (100 = 100% disease control, 0 = no disease control relative to the controls) [1, 5]: 99* %
Test B rating (100 = 100% disease control, 0 = no disease control relative to the controls) [2, 5]: 100* %
Test C rating (100 = 100% disease control, 0 = no disease control relative to the controls) [3, 5]: 100* %
Test D rating (100 = 100% disease control, 0 = no disease control relative to the controls) [4, 5]: 42* %

COc1ccc(C(O)c2c(Br)nc(C)n2-c2ccc(F)cc2Br)c(F)c1 (centres unmarked) [compound 310]
Test A rating (100 = 100% disease control, 0 = no disease control relative to the controls) [1, 5]: 100* %
Test B rating (100 = 100% disease control, 0 = no disease control relative to the controls) [2, 5]: 100* %
Test C rating (100 = 100% disease control, 0 = no disease control relative to the controls) [3, 5]: 100* %
Test D rating (100 = 100% disease control, 0 = no disease control relative to the controls) [4, 5]: 56* %

COc1ccc(C(O)c2c(Br)ncn2-c2ccc(F)cc2Cl)c(Cl)c1 (centres unmarked) [compound 354]
Test A rating (100 = 100% disease control, 0 = no disease control relative to the controls) [1, 5]: 94* %
Test B rating (100 = 100% disease control, 0 = no disease control relative to the controls) [2, 5]: 18* %
Test C rating (100 = 100% disease control, 0 = no disease control relative to the controls) [3, 5]: 0* %
Test D rating (100 = 100% disease control, 0 = no disease control relative to the controls) [4, 5]: 0* %

COc1cc(OC)c(Br)c(-n2c(C)nc(Br)c2C(O)c2c(F)cc(F)cc2F)c1 (centres unmarked) [compound 203]
Test A rating (100 = 100% disease control, 0 = no disease control relative to the controls) [1, 6]: 41%
Test B rating (100 = 100% disease control, 0 = no disease control relative to the controls) [2, 6]: 30%
Test C rating (100 = 100% disease control, 0 = no disease control relative to the controls) [3, 6]: 66%
Test D rating (100 = 100% disease control, 0 = no disease control relative to the controls) [4, 6]: 0%
